In patent US7442703B2, “Piperidine derivatives useful as CCR5 antagonists” (priority 2001, dated 2008):
Where a name gives a salt, the structure may show the parent alone.

Legend:
[1] = tested on: HIV-1 luciferase reporter virus in U87-CD4-CCR5 cells; test: HIV Replication (luciferase) assay; assay type: cell-based; details: Human immunodeficiency virus 1, U87/CD4/CCR5, read-out: HIV Replication (luciferase) IC50
Procedure: Luciferase Replication Assay:
Plasmids encoding the full length genome of HIV-1 pNL-4-Luc with the gp120 V-3 loop replaced by the Bgl II fragment of HIV-1 ADA, YU-2 or HxB (ADA-Luc-FL, YU-2-Luc-FL and HxB-Luc-FL) are obtained from Dr. Susan Pontow (Washington University, St. Louis Mo.). Replication-competent luciferase reporter virus stocks are generated by transfection of plasmids into 293T cells using Superfect (Qiagen) or Mirus transfection reagents. Viral stocks are collected 48 hours following transfection and titered for luciferase production on U-87-CCR5 or CXCR4 cells. U87-CD4-CCR5 cells (10^4/well) are plated in 96-well cell culture plates and incubated overnight. Media is removed and replaced with 50 μl of fresh culture media (DMEM, 10% FCS) and 50 μl of compound diluted in culture medium. Cells are incubated with compound at 37° C. for 1 hour. The resultant supernatant is removed and replaced with 20 μl of media containing compound and infected with an equal volume of diluted or undiluted virus stock at 37° C. for 3-4 hours. The cells are washed once with DMEM, and 200 μl of media containing compound is added. The cultures are incubated for 3 days, the cells lysed in luciferase lysis buffer (Promega, Madison, Wis.) and transferred to Immulon plates (Dynex Technologies, Chantilly Va.). An equal volume of luciferase substrate (Promega, Madison Wis.) is added to lysates and the plates read immediately in a Wallac Luminometer. Fifty and ninety percent inhibitory concentrations are determined using GraphPad PRISM software.

Row | SMILES | melting point | IC50 [1] [nM]
1 | Cc1ncnc(C)c1C(=O)N1CCC(C)(N2CCC(N(Cc3ccccc3)c3ccc(Br)cc3)CC2)CC1 (as salt: HCl) | 168 to 170 °C | –
2 | Cc1ncnc(C)c1C(=O)N1CCC(C)(N2CCC(N(C)c3ccc(Cl)c4cccnc34)CC2)CC1 (as salt: HCl) | 164 to 167 °C (dec.) | –
3 | Cc1ncnc(C)c1C(=O)N1CCC(C)(N2CCC(N(Cc3ccccc3)c3ccncc3)CC2)CC1 (as salt: HCl) [Compound 108] | 182 to 189 °C | –
4 | Cc1cc(-c2cc[n+]([O-])cc2)cc(C)c1C(=O)N1CCC(C)(N2CCC(N(Cc3ccccc3)c3ccc(C(F)(F)F)nc3)CC2)CC1 [Compound 16] | – | 0.5
5 | Cc1ncnc(C)c1C(=O)N1CCC(C)(N2CCC(N(Cc3ccccn3)c3ccc(Br)cc3)CC2)CC1 [Compound 89] | – | 0.8
6 | COc1ccc(N(c2ccccc2)C2CCN(C3(C)CCN(C(=O)c4c(C)ncnc4C)CC3)CC2)cc1Cl [Compound 91] | – | 0.12
7 | COc1ccc(N(Cc2ccccc2)C2CCN(C3(C)CCN(C(=O)c4c(C)ncnc4C)CC3)CC2)cc1 [Compound 37] | – | 0.1
8 | Cc1ncnc(C)c1C(=O)N1CCC(C)(N2CCC(N(Cc3ccccc3)c3cccc(C(N)=O)c3)CC2)CC1 [Compound 61] | – | 0.5
9 | Cc1ncnc(C)c1C(=O)N1CCC(C)(N2CCC(N(CC3CC3)C3CCN(S(=O)(=O)c4cccc(Cl)c4)CC3)CC2)CC1 [Compound 3] | – | 32
10 | Cc1ncnc(C)c1C(=O)N1CCC(C)(N2CCC(N(c3ccccc3)c3ccc(Cl)cn3)CC2)CC1 [Compound 78] | – | 1
11 | Cc1ncnc(C)c1C(=O)N1CCC(C)(N2CCC(N(Cc3ccncc3)c3ccccc3)CC2)CC1 [Compound 86] | – | 75
12 | Cc1cccc(N(Cc2ccccc2)C2CCN(C3(C)CCN(C(=O)c4c(C)ncnc4C)CC3)CC2)c1 [Compound 39] | – | 0.1
13 | Cc1ncnc(C)c1C(=O)N1CCC(C)(N2CCC(N(Cc3ccccc3)C3CCN(S(=O)(=O)c4cccc(Cl)c4)CC3)CC2)CC1 [Compound 1] | – | 0.1
14 | Cc1ncnc(C)c1C(=O)N1CCC(C)(N2CCC(N(Cc3ccccc3)c3ccc(F)c(Cl)c3)CC2)CC1 [Compound 27] | – | 0.1
15 | Cc1cc(-c2cc[n+]([O-])cc2)cc(C)c1C(=O)N1CCC(C)(N2CCC(N(Cc3ccccn3)c3ccccc3)CC2)CC1 [Compound 84] | – | 10
16 | Cc1ncnc(C)c1C(=O)N1CCC(C)(N2CCC(N(Cc3ccccc3)c3cc(F)cc(F)c3)CC2)CC1 [Compound 36] | – | 0.1
17 | Cc1ncnc(C)c1C(=O)N1CCC(C)(N2CCC(N(Cc3ccccc3)c3ccc(Oc4ccccc4)cc3)CC2)CC1 [Compound 43] | – | 2
18 | COc1cccc(N(c2ccccc2)C2CCN(C3(C)CCN(C(=O)c4c(C)ncnc4C)CC3)CC2)c1 [Compound 94] | – | 1
19 | CCOc1ccc(N(Cc2ccccc2)C2CCN(C3(C)CCN(C(=O)c4c(C)ncnc4C)CC3)CC2)cc1 [Compound 40] | – | < 0.1
20 | Cc1ncnc(C)c1C(=O)N1CCC(C)(N2CCC(N(Cc3ccccc3)C3CCN(S(=O)(=O)c4ccccc4Cl)CC3)CC2)CC1 [Compound 5] | – | 2.1

Row | SMILES | melting point | IC50 [1] [nM]
21 | Cc1ncnc(C)c1C(=O)N1CCC(C)(N2CCC(N(c3ccccc3)c3ccc(Cl)cc3)CC2)CC1 [Compound 73] | – | 0.3
22 | Cc1ncnc(C)c1C(=O)N1CCC(C)(N2CCC(N(Cc3ccccc3)c3ccc(Br)c4cccnc34)CC2)CC1 [Compound 52] | – | 1
23 | Cc1ncnc(C)c1C(=O)N1CCC(C)(N2CCC(N(Cc3ccccc3)c3cccc(C(=O)O)c3)CC2)CC1 [Compound 59] | – | 4
24 | Cc1ncnc(C)c1C(=O)N1CCC(C)(N2CCC(N(Cc3ccccc3)c3cccc(C(=O)NCc4ccccc4)c3)CC2)CC1 [Compound 66] | – | 1
25 | Cc1ncnc(C)c1C(=O)N1CCC(C)(N2CCC(N(Cc3ccccc3)c3ccccc3F)CC2)CC1 [Compound 42] | – | 0.8
26 | Cc1ncnc(C)c1C(=O)N1CCC(C)(N2CCC(N(Cc3ccccc3)c3cc(Cl)cc(Cl)c3)CC2)CC1 [Compound 32] | – | 1.7
27 | Cc1ncnc(C)c1C(=O)N1CCC(C)(N2CCC(N(Cc3ccccn3)c3ccccc3)CC2)CC1 [Compound 90] | – | 3.4
28 | Cc1ncnc(C)c1C(=O)N1CCC(C)(N2CCC(N(c3ccccc3)c3ccc(Br)cn3)CC2)CC1 [Compound 71] | – | 0.6
29 | CCCN(c1cccc2cccnc12)C1CCN(C2(C)CCN(C(=O)c3c(C)ncnc3C)CC2)CC1 (as salt: HCl) [Compound 110] | 181 °C (dec.) | –
30 | Cc1ncnc(C)c1C(=O)N1CCC(C)(N2CCC(N(c3ccccc3)c3ccccn3)CC2)CC1 [Compound 77] | – | 7
31 | Cc1ncnc(C)c1C(=O)N1CCC(C)(N2CCC(N(Cc3ccncc3)c3ccc(Br)cc3)CC2)CC1 [Compound 88] | – | 5
32 | Cc1ncnc(C)c1C(=O)N1CCC(C)(N2CCC(N(c3ccccc3)c3ccc(C(F)(F)F)nc3)CC2)CC1 (as salt: HCl) [Compound 69] | 189 to 193 °C | –
33 | Cc1ncnc(C)c1C(=O)N1CCC(C)(N2CCC(N(CCc3ccccc3)c3ccccc3)CC2)CC1 [Compound 75] | – | 38
34 | Cc1cc(-c2cc[n+]([O-])cc2)cc(C)c1C(=O)N1CCC(C)(N2CCC(N(c3ccccc3)c3ccc(C(F)(F)F)cn3)CC2)CC1 [Compound 83] | – | 0.05
35 | Cc1ncnc(C)c1C(=O)N1CCC(C)(N2CCC(N(CC3CCCCC3)c3ccccc3)CC2)CC1 [Compound 106] | – | 1
36 | Cc1ncnc(C)c1C(=O)N1CCC(C)(N2CCC(N(CC3CC3)c3ccccc3)CC2)CC1 [Compound 74] | – | 10
37 | Cc1cc(N(c2ccccc2)C2CCN(C3(C)CCN(C(=O)c4c(C)ncnc4C)CC3)CC2)ccc1Br [Compound 30] | – | 0.26
38 | Cc1ncnc(C)c1C(=O)N1CCC(C)(N2CCC(N(Cc3ccccc3)c3ccc(CCNS(=O)(=O)C4CC4)cc3)CC2)CC1 [Compound 56] | – | 0.2
39 | Cc1ncnc(C)c1C(=O)N1CCC(C)(N2CCC(N(Cc3ccccc3)c3ccc(C(=O)O)cc3)CC2)CC1 [Compound 60] | – | 27
40 | Cc1ncnc(C)c1C(=O)N1CCC(C)(N2CCC(N(Cc3ccccc3)C3CCN(S(=O)(=O)C4CC4)CC3)CC2)CC1 [Compound 7] | – | 3

Row | SMILES | melting point | IC50 [1] [nM]
41 | Cc1ncnc(C)c1C(=O)N1CCC(C)(N2CCC(N(c3ccccc3)c3ccc(F)cc3)CC2)CC1 [Compound 79] | – | 1
42 | Cc1ncnc(C)c1C(=O)N1CCC(C)(N2CCC(N(Cc3ccccc3)c3ccc(OC(F)(F)F)cc3)CC2)CC1 [Compound 11] | – | 0.2
43 | Cc1ncnc(C)c1C(=O)N1CCC(C)(N2CCC(N(Cc3cccnc3)c3ccc(Br)cc3)CC2)CC1 [Compound 97] | – | 0.3
44 | Cc1ncnc(C)c1C(=O)N1CCC(C)(N2CCC(N(Cc3cccnc3)c3ccccc3)CC2)CC1 [Compound 80] | – | 2
45 | Cc1ncnc(C)c1C(=O)N1CCC(C)(N2CCC(N(Cc3ccccc3)c3cc(C(F)(F)F)cc(C(F)(F)F)c3)CC2)CC1 [Compound 34] | – | 10
46 | COc1ccc(N(Cc2ccccc2)C2CCN(C3(C)CCN(C(=O)c4c(C)ncnc4C)CC3)CC2)cc1Cl [Compound 29] | – | 0.1
47 | Cc1ncnc(C)c1C(=O)N1CCC(C)(N2CCC(N(Cc3ccccc3)c3ccc(C(F)(F)F)cc3)CC2)CC1 [Compound 10] | – | 0.5
48 | Cc1ncnc(C)c1C(=O)N1CCC(C)(N2CCC(N(c3ccccc3)c3cccc(Br)c3)CC2)CC1 [Compound 87] | – | 0.1
49 | Cc1ncnc(C)c1C(=O)N1CCC(C)(N2CCC(N(Cc3ccccc3)c3ccc(F)c(F)c3)CC2)CC1 [Compound 25] | – | 0.1
50 | Cc1ncnc(C)c1C(=O)N1CCC(C)(N2CCC(N(Cc3ccccc3)c3ccc(N4CCOCC4)cc3)CC2)CC1 [Compound 45] | – | 0.9
51 | CC(=O)NCCc1ccc(N(Cc2ccccc2)C2CCN(C3(C)CCN(C(=O)c4c(C)ncnc4C)CC3)CC2)cc1 [Compound 49] | – | 0.4
52 | CCOc1ccc(N(c2ccccc2)C2CCN(C3(C)CCN(C(=O)c4c(C)ncnc4C)CC3)CC2)cc1 [Compound 99] | – | 0.3
53 | Cc1ncnc(C)c1C(=O)N1CCC(C)(N2CCC(N(Cc3ccccc3)C3CCN(S(C)(=O)=O)CC3)CC2)CC1 [Compound 2] | – | 0.8
54 | Cc1cc(-c2cc[n+]([O-])cc2)cc(C)c1C(=O)N1CCC(C)(N2CCC(N(c3ccccc3)c3ccc(OC(F)(F)F)cc3)CC2)CC1 [Compound 81] | – | 3
55 | Cc1ncnc(C)c1C(=O)N1CCC(C)(N2CCC(N(Cc3ccccc3)c3cccc(Cl)c3)CC2)CC1 [Compound 18] | – | 0.1
56 | Cc1ncnc(C)c1C(=O)N1CCC(C)(N2CCC(N(Cc3ccc(F)cc3)c3cccc(Br)c3)CC2)CC1 [Compound 19] | – | 0.5
57 | Cc1ncnc(C)c1C(=O)N1CCC(C)(N2CCC(N(Cc3ccccc3)C3CCCN(S(=O)(=O)C4CC4)C3)CC2)CC1 (stereo not drawn) (as salt: HCl) [Compound 112] | 190 to 195 °C | –
58 | Cc1ncnc(C)c1C(=O)N1CCC(C)(N2CCC(N(Cc3ccccc3)c3ccc(Cl)c(C(F)(F)F)c3)CC2)CC1 [Compound 35] | – | 2
59 | Cc1cccc(N(c2ccccc2)C2CCN(C3(C)CCN(C(=O)c4c(C)ncnc4C)CC3)CC2)c1 [Compound 96] | – | 0.3
60 | Cc1ncnc(C)c1C(=O)N1CCC(C)(N2CCC(N(Cc3ccccc3)c3cccc(C(=O)N4CCOCC4)c3)CC2)CC1 [Compound 62] | – | 4
